Measurements reported in paper PMC4826333 (Journal of medicinal chemistry, 2015).

Assays:
[1] = test system: PC-3, DU-145, LNCaP, and HeLa; experiment: Trypan blue cytotoxicity, panel of cancer cell lines; conditions: four cancer cell lines; for cytotoxicity as compared with curcumin: 1 and 10 μM
PC-3, DU145, LNCaP, HeLa = experiment: Relative potency versus curcumin over the cancer cell lines, WST-1 and TB; format: cell-based, human; conditions: in the tested cancer cell lines

Structure (SMILES)	activity at 10 μM concentration [1]	cytotoxicity as compared with curcumin [1]	times more potent than curcumin (PC-3, DU145, LNCaP, HeLa)
Cc1nc(/C=C/C(=O)/C=C/c2nc(C)c(-c3ccncc3)s2)sc1-c1ccncc1 [Compound 34, (1E,4E)-1,5-Bis(4-methyl-5-(pyridin-4-yl)thiazol-2-yl)penta-1,4-dien-3-one]	almost inactive	did not show increased or similar cytotoxicity	
Cn1cncc1/C=C/C(=O)/C=C/c1cncn1C [Compound 16, (1E,4E)-1,5-Bis(1-methyl-1H-imidazol-5-yl)penta-1,4-dien-3-one]		as effective (or slightly more effective) as curcumin	
O=C(/C=C/c1cocn1)/C=C/c1cocn1 [Compound 20, (1E,4E)-1,5-Bis(oxazol-4-yl)penta-1,4-dien-3-one]		as effective (or slightly more effective) as curcumin	
Cn1nc(C(F)(F)F)c(/C=C/C(=O)/C=C/c2c(C(F)(F)F)nn(C)c2Cl)c1Cl [Compound 18, (1E,4E)-1,5-Bis(5-chloro-1-methyl-3-(trifluoromethyl)-1H-pyrazol-4-yl)penta-1,4-dien-3-one]		as effective (or slightly more effective) as curcumin	
Cn1cc(/C=C/C(=O)/C=C/c2cnn(C)c2)cn1 [Compound 17, (1E,4E)-1,5-Bis(1-methyl-1H-pyrazol-4-yl)penta-1,4-dien-3-one]	almost inactive	did not show increased or similar cytotoxicity	
Cc1nc(C(F)(F)F)c(/C=C/C(=O)/C=C/c2sc(C)nc2C(F)(F)F)s1 [Compound 24, (1E,4E)-1,5-Bis(2-methyl-4-(trifluoromethyl)thiazol-5-yl)-penta-1,4-dien-3-one]			11–36 times
O=C(/C=C/c1cc2ccccc2nc1Cl)/C=C/c1cc2ccccc2nc1Cl [Compound 33, (1E,4E)-1,5-Bis(2-chloroquinolin-3-yl)penta-1,4-dien-3-one]	almost inactive	did not show increased or similar cytotoxicity	
O=C(/C=C/c1nc2ccccc2s1)/C=C/c1nc2ccccc2s1 [Compound 35, (1E,4E)-1,5-Bis(benzo[d]thiazol-2-yl)penta-1,4-dien-3-one]		as effective (or slightly more effective) as curcumin	
O=C(/C=C/c1cccnc1)/C=C/c1cccnc1 [Compound 27, (1E,4E)-1,5-Di(pyridin-3-yl)penta-1,4-dien-3-one]		as effective (or slightly more effective) as curcumin	
O=C(/C=C/c1ccnc2ccccc12)/C=C/c1ccnc2ccccc12 [Compound 32, (1E,4E)-1,5-Di(quinolin-4-yl)penta-1,4-dien-3-one]		as effective (or slightly more effective) as curcumin	
O=C(/C=C/c1ccc2ccccc2n1)/C=C/c1ccc2ccccc2n1 [Compound 31, (1E,4E)-1,5-Di(quinolin-2-yl)penta-1,4-dien-3-one]		as effective (or slightly more effective) as curcumin	
